One assay addresses ABL1 (Homo sapiens, UniProt P00519). The assay is described as follows: in vitro kinase assay, recombinant ABL1. Type of assay: biochemical. The note with it: ABL versus Src, higher concentration for ABL. How it is done: The in vitro kinase assays of an IRD (IRD Nos. 10, 11, 13, 61, 70, 71, 79, 80, 83˜87 and 176) were carried out using recombinant proteins according to the procedure disclosed in Nam 2012 (Nam, S., Xie, J., Perkins, A., Ma, Y., Yang, F., Wu, J., Wang, Y., Xu, R. Z., Huang, W., Horne, D. A., and Jove, R. (2012) Novel synthetic derivatives of the natural product berbamine inhibit Jak2/Stat3 signaling and induce apoptosis of human melanoma cells, Molecular oncology), which is hereby incorporated by reference in its entirety, as if fully set forth herein.

Assay [1] deals with p-Stat5 (Y694) in KCL-22 CML cells. The assay is described as follows: Western blot p-Stat5, KCL-22 CML cells. Format: cell-based, human. The note with it: 4 hours. Here is the method:
(§1) Human KCL-22 CML cells were obtained from the American Type Culture Collection (ATCC). Cells were cultured in RPMI-1640 media containing 10% fetal bovine serum (FBS). Imatinib-resistant human KCL-22 CML cells expressing the T315I mutant Bcr-Abl (KCL-22M) were derived from human KCL-22 CML cells (Yuan et al., 2010). Cells were grown in RPMI 1640 media supplemented with 10% FBS. Monoclonal antibodies to Abl protein and phosphotyrosine (p-Y) were obtained from BD Biosciences (San Diego, Calif.). Polyclonal antibodies to p-Stat5 (Y694) and p-Src family (Y419) were obtained from Cell Signaling Technologies (Cambridge, Mass.). Polyclonal antibodies to Stat5 were from Santa Cruz Biotechnology (Santa Cruz, Calif.). Monoclonal antibody to Src was obtained from Millipore (Billerica, Mass.).
(§2) Western analyses were performed as described previously with minor modification (Nam et al., 2005b). Briefly, KCL-22 CML and T315I KCL-22 CML cells were treated with IRDs. Whole-cell lysates were resolved by SDS-PAGE and immunoblotted with specific antibodies. Primary phospho-specific antibodies were incubated in TBS (pH 7.5) with 0.1% Tween-20 and 5% BSA with gentle agitation overnight at 4° C. […] Positive immuno-reactive proteins were detected using the ECL system (Pierce, Rockford, Ill.). […]
(A western blot detects proteins with antibodies after separation by electrophoresis.)

Assay [2] has as its system p-Stat5 (Y694) in T315I KCL-22 CML cells. The assay is described as follows: Western blot p-Stat5, T315I KCL-22 CML cells. Type of assay: cell-based, human. The conditions noted are these: 4 hours. How it is done: as §1, §2
The test system of assay [3] is p-Src in KCL-22 CML cells. The assay is described as follows: Western blot p-Src, KCL-22 CML cells. Format: cell-based, human. The conditions noted are these: 1.0 μM. Here is the method: as §1, §2
For assay [4], the system named is p-Src in T315I KCL-22 CML cells. The assay is described as follows: Western blot p-Src, T315I KCL-22 CML cells. Type of assay: cell-based, human. The note with it: 1.0 μM. Here is the method: as §1, §2
Assay [5] concerns p-Bcr-Abl in KCL-22 CML cells. The assay is described as follows: Western blot p-Bcr-Abl, KCL-22 CML cells. Format: cell-based, human. The conditions noted are these: 4 hours. How it is done: as §1, §2
For assay [6], the system named is p-Bcr-Abl in T315I KCL-22 CML cells. The assay is described as follows: Western blot p-Bcr-Abl, T315I KCL-22 CML cells. Type of assay: cell-based, human. The note with it: 4 hours. Here is the method:
as §1, §2

For assay [7], the system named is Imatinib-resistant human KCL-22 CML cells expressing the T315I mutant Bcr-Abl. The assay is described as follows: Drug resistance of imatinib-resistant T315I KCL-22 CML cells. Type of assay: cell-based.

Sequence of ABL1 (P00519 whole entry): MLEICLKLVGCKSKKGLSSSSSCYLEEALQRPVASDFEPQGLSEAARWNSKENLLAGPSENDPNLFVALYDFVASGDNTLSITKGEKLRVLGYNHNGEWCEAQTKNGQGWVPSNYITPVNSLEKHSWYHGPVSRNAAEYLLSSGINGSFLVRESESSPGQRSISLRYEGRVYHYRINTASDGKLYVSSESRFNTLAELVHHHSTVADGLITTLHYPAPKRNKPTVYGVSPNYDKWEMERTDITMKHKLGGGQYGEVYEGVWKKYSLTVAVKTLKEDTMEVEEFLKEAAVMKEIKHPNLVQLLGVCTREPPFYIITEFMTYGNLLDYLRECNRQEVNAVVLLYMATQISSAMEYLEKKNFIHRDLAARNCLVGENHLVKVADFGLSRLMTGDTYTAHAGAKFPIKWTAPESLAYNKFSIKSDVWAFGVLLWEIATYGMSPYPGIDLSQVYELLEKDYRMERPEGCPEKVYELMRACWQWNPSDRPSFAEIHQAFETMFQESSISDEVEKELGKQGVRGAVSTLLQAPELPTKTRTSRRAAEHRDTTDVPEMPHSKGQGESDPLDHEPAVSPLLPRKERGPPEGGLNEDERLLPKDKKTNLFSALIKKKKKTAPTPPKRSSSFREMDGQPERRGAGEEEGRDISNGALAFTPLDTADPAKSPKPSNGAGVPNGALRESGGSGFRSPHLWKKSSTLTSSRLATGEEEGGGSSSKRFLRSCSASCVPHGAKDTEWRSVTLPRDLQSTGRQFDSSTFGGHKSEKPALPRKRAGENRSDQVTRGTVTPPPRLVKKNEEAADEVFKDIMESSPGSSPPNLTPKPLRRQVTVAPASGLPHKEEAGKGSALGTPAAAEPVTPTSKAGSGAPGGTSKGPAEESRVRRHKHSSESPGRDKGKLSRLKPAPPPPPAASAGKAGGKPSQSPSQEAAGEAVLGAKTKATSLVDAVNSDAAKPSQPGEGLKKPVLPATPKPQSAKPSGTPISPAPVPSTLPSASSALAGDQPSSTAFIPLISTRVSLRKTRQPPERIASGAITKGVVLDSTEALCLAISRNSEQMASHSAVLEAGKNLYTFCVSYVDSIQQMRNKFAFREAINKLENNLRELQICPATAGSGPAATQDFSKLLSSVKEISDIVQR

In the case of `Cl.Cl.O=C1Nc2cc(Br)ccc2C1=C1Nc2ccccc2C1=NOCCN1CCNCC1` [compound 87], the “concentration inhibiting ABL kinase activity relative to Src kinase activity in vitro” value at ABL1 is reported as “about 15 fold”. Further, the “tyrosyl phosphorylation of Stat5” value in assay [1] (5 μM) and in assay [2] (5 μM) was “substantially inhibited” in each case. The “total Stat5 levels” value in assay [1] and in assay [2] was “unchanged” throughout. Moreover, the “autophosphorylation of Src” value in assay [3] and in assay [4] was “strong reduction” throughout. The “concentration that reduced levels of p-Bcr-Abl” value in assay [5] and in assay [6] was “higher than 0.5 μM” each time.

As to `Cc1cn(-c2cc(NC(=O)c3ccc(C)c(Nc4nccc(-c5cccnc5)n4)c3)cc(C(F)(F)F)c2)cn1` [nilotinib], the “resistance of the cells to the drug” value in assay [7] is reported as “resist”.
